From PubChem BioAssay AID1963838 (Molecular Pharmacology Branch, DTP, NCI, 2024)

Tested on: 855422-203-R-J1-PDC complex spheroid viability
Experiment: Anticancer human tumor 855422-203-R-J1-PDC patient-derived bladder carcinoma cell line growth inhibition [POLQ]
Conditions: for IC50: curve of first compound; for viability, T/C: stronger effect = lower value
Experimental: Multicellular complex tumor spheroid response to Polymerase (POL) inhibitors (novobiocin, ART-558, RP6685) in combination with a variety of drugs and investigational agents in selected tumor cell lines
The POL inhibitors (novobiocin, ART-558, and RP6685) were evaluated both individually and in combination with standard of care and investigational anticancer small molecules within a complex spheroid model of solid tumors. . Complex spheroids include a stromal component modeled by human endothelial cells (HUVEC) and fibroblasts modeled by human mesenchymal stem cells (MSCs). The concentration ranges selected for each drug and investigational agent were based upon clinically achievable concentrations if the clinical Cmax of the agent was known.
Compounds. The drugs and investigational agents: novobiocin (NSC847541), ART-558 (NSC835418), RP-6685 (NSC848927), peposertib (NSC802822), ceralasertib (NSC780249), elimusertib (NSC800525), camonsertib (NSC841442), AZD-1390 (NSC803789), olaparib (NSC753686), talazoparib (NSC767125), rucaparib (NSC756644), sotorasib (NSC818433), MRTX-1133 (NSC836407), SN-38 (NSC673596), topotecan (NSC609699), epotoside (NSC141540), doxorubicin (NSC123127), gemcitabine (NSC613327), 5-fluorouracil (NSC19893), paclitaxel (NSC125973), vemurafenib (NSC761431), MSA-2 (NSC828583), SN-011 (NSC837082), adavosertib (NSC754352), prexasertib (NSC758257), carboplatin (NSC241240) and oxaliplatin (NSC266046), were obtained from the National Cancer Institute (NCI) Developmental Therapeutics Program Chemical Repository (21). The FDA-approved anticancer drug set is available from the Developmental Therapeutics Program at https://dtp.cancer.gov/organization/dscb/obtaining/. […] The stock solutions were prepared in dimethyl sulfoxide (DMSO, Sigma-Aldrich, St. Louis, MO, cat. D2650), except for the platinum compounds which were prepared in saline (Quality Biological, Gaithersburg, MD, cat. 114-055-101), at 800-fold the tested concentration and stored at -70 degrees C prior to their use. All drugs and investigational agents were tested over a range starting from a high concentration at or near the clinical Cmax and decreasing in half-log increments. If the clinical Cmax for an agent had not been determined, the highest concentration tested was 10 microM, except for SN-38, which was tested at a high concentration of 1 microM.
Cell Culture. All cells were maintained in an incubator at 37 degrees C and 5% CO2 with 95% humidity. The PDC lines were cultured according to standard operating procedures established by the NCI PDMR (https://pdmr.cancer.gov). Table 3 of the manuscript, lists the cell lines along with the number of the three cell types plated to form the mct-spheroids and media for tumor cell growth. After thawing, all PDC lines, except 997537-175-T-J1-PDC and 415267-285-R-J2-PDC, were cultured in Matrigel-coated flasks prepared with a working solution of 1X Ham's F-12 nutrient mix, without supplementation (Thermo Fisher Scientific, cat. 11765054), 100 U/mL penicillin-streptomycin (Thermo Fisher Scientific, cat. 15140122), and 2.5% Matrigel (Corning Inc., Corning, NY, cat. 354248) for the first three passages. The two PDC lines 997537-175-T-J1-PDC and 415267-285-R-J2-PDC were cultured on uncoated flasks. The 857933-349-R-J2-PDC line was cultured in 6C/Colon 1B media containing advanced DMEM/F-12 (Thermo Fisher Scientific, cat. 12634028), 10 mM HEPES (Thermo Fisher Scientific, cat. 15630080), 1X GlutaMAX supplement (Thermo Fisher Scientific, cat. 35050061), 0.1 mg/mL primocin (InvivoGen, San Diego, CA, cat. ant-pm-2), 10% defined fetal bovine serum, heat inactivated (HyClone Laboratories Inc., Logan, UT, cat. SH30070.03HI), 50% L-WRN conditioned media (ATCC, cat. CRL-3276), 1.25 mM N-Acetyl-L-cysteine (Sigma-Aldrich, cat. A9165), 10 mM nicotinamide (Sigma-Aldrich, cat. N0636), 1X B-27 supplement (Thermo Fisher Scientific, cat. 17504044), 1X N-2 supplement (Thermo Fisher Scientific, cat. […]

[1] = second compound 0.0316 µM, first compound 0.0316 µM
[2] = second compound 0.0316 µM, first compound 0.1 µM
[3] = second compound 0.0316 µM, first compound 0.316 µM
[4] = second compound 0.0316 µM, first compound 1 µM
[5] = second compound 0.0316 µM, first compound 3.16 µM
[6] = second compound 0.0316 µM, first compound 10 µM
[7] = second compound 0.1 µM, first compound 0.0316 µM
[8] = second compound 0.1 µM, first compound 0.1 µM
[9] = second compound 0.1 µM, first compound 0.316 µM
[10] = second compound 0.1 µM, first compound 1 µM
[11] = second compound 0.1 µM, first compound 3.16 µM
[12] = second compound 0.1 µM, first compound 10 µM
[13] = second compound 0.316 µM, first compound 0.0316 µM
[14] = second compound 0.316 µM, first compound 0.1 µM
[15] = second compound 0.316 µM, first compound 0.316 µM
[16] = second compound 0.316 µM, first compound 1 µM
[17] = second compound 0.316 µM, first compound 3.16 µM
[18] = second compound 0.316 µM, first compound 10 µM
[19] = second compound 1 µM, first compound 0.0316 µM
[20] = second compound 1 µM, first compound 0.1 µM
[21] = second compound 1 µM, first compound 0.316 µM
[22] = second compound 1 µM, first compound 1 µM
[23] = second compound 1 µM, first compound 3.16 µM
[24] = second compound 1 µM, first compound 10 µM
[25] = second compound 3.16 µM, first compound 0.0316 µM
[26] = second compound 3.16 µM, first compound 0.1 µM
[27] = second compound 3.16 µM, first compound 0.316 µM
[28] = second compound 3.16 µM, first compound 1 µM
[29] = second compound 3.16 µM, first compound 3.16 µM
[30] = second compound 3.16 µM, first compound 10 µM
[31] = second compound 10 µM, first compound 0.0316 µM
[32] = second compound 10 µM, first compound 0.1 µM
[33] = second compound 10 µM, first compound 0.316 µM
[34] = second compound 10 µM, first compound 1 µM
[35] = second compound 10 µM, first compound 3.16 µM
[36] = second compound 10 µM, first compound 10 µM
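Also: spheroids exposed to compounds for seven days before readout.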

With `CC1COCCN1c1cc(-c2ccnn2C)c2ccnc(-c3ccn[nH]3)c2n1` (stereo unspecified) + COC1C(OC(N)=O)C(O)C(Oc2ccc3c(O)c(NC(=O)c4ccc(O)c(CC=C(C)C)c4)c(=O)oc3c2C)OC1(C)C the IC50 (second compound 0.0316 µM) was 169 nM, the IC50 (second compound 0.1 µM) was 171 nM and the IC50 (second compound 0.316 µM) was 176 nM. It also gave an IC50 (second compound 1 µM) of 193 nM, an IC50 (second compound 3.16 µM) of 192 nM and an IC50 (second compound 10 µM) of 183 nM. It also gave a viability, T/C [1] of 107%, a viability, T/C [2] of 71.5% and a viability, T/C [3] of 24.6%. The viability, T/C [4] was 9.79%, the viability, T/C [5] was 8.71% and the viability, T/C [6] was 8.63%. The viability, T/C [7] was 108%, the viability, T/C [8] was 73% and the viability, T/C [9] was 23.4%. It also gave a viability, T/C [10] of 11.9%, a viability, T/C [11] of 9.78% and a viability, T/C [12] of 9.2%. The viability, T/C [13] was 104%, the viability, T/C [14] was 74.5% and the viability, T/C [15] was 24.1%. The viability, T/C [16] was 13.5%, the viability, T/C [17] was 11.3% and the viability, T/C [18] was 6.39%. The viability, T/C [19] was 104%, the viability, T/C [20] was 85.4% and the viability, T/C [21] was 23.1%. The viability, T/C [22] was 13.3%, the viability, T/C [23] was 8.72% and the viability, T/C [24] was 7.58%. It also gave a viability, T/C [25] of 111%, a viability, T/C [26] of 85% and a viability, T/C [27] of 22.9%. For the same compound, the viability, T/C [28] was 11%, the viability, T/C [29] was 6.98% and the viability, T/C [30] was 7.28%. It also gave a viability, T/C [31] of 118%, a viability, T/C [32] of 81.5% and a viability, T/C [33] of 21.1%. For the same compound, the viability, T/C [34] was 10.7%, the viability, T/C [35] was 9.81% and the viability, T/C [36] was 7.1%.

Compound `CCc1cc2c(N3CCc4c(cc(Cn5ccnc5)cc4-c4cn(C)nc4C(F)(F)F)C3=O)ccnc2c(OC)n1` + COC1C(OC(N)=O)C(O)C(Oc2ccc3c(O)c(NC(=O)c4ccc(O)c(CC=C(C)C)c4)c(=O)oc3c2C)OC1(C)C has an IC50 (second compound 0.0316 µM) of 4020 nM, an IC50 (second compound 0.1 µM) of 3410 nM and an IC50 (second compound 0.316 µM) of 2730 nM. The IC50 (second compound 1 µM) was 2600 nM, the IC50 (second compound 3.16 µM) was 2050 nM and the IC50 (second compound 10 µM) was 2220 nM. It also gave a viability, T/C [1] of 83.6%, a viability, T/C [2] of 95% and a viability, T/C [3] of 83.4%. For the same compound, the viability, T/C [4] was 69.5%, the viability, T/C [5] was 55.9% and the viability, T/C [6] was 34.5%. It also gave a viability, T/C [7] of 88.2%, a viability, T/C [8] of 82.8% and a viability, T/C [9] of 84.1%. For the same compound, the viability, T/C [10] was 66.8%, the viability, T/C [11] was 52.6% and the viability, T/C [12] was 28.5%. The viability, T/C [13] was 93.3%, the viability, T/C [14] was 80.3% and the viability, T/C [15] was 93.2%. For the same compound, the viability, T/C [16] was 75.1%, the viability, T/C [17] was 46.7% and the viability, T/C [18] was 31%. The viability, T/C [19] was 87.9%, the viability, T/C [20] was 76.9% and the viability, T/C [21] was 71.2%. The viability, T/C [22] was 65.1%, the viability, T/C [23] was 46.6% and the viability, T/C [24] was 28.6%. For the same compound, the viability, T/C [25] was 89.5%, the viability, T/C [26] was 90% and the viability, T/C [27] was 68.9%. The viability, T/C [28] was 67.3%, the viability, T/C [29] was 40% and the viability, T/C [30] was 28.1%. It also gave a viability, T/C [31] of 99.3%, a viability, T/C [32] of 76% and a viability, T/C [33] of 80.3%. For the same compound, the viability, T/C [34] was 72.9%, the viability, T/C [35] was 39.3% and the viability, T/C [36] was 31.9%.

For `COc1cc2cc(C(=O)CCC(=O)O)sc2cc1OC` + COC1C(OC(N)=O)C(O)C(Oc2ccc3c(O)c(NC(=O)c4ccc(O)c(CC=C(C)C)c4)c(=O)oc3c2C)OC1(C)C, the IC50 (second compound 0.0316 µM) was > 10000 nM, the IC50 (second compound 0.1 µM) was > 10000 nM and the IC50 (second compound 0.316 µM) was > 10000 nM. For the same compound, the IC50 (second compound 1 µM) was > 10000 nM, the IC50 (second compound 3.16 µM) was > 10000 nM and the IC50 (second compound 10 µM) was > 10000 nM. For the same compound, the viability, T/C [1] was 105%, the viability, T/C [2] was 97.2% and the viability, T/C [3] was 115%. It also gave a viability, T/C [4] of 106%, a viability, T/C [5] of 99.8% and a viability, T/C [6] of 101%. The viability, T/C [7] was 83.2%, the viability, T/C [8] was 111% and the viability, T/C [9] was 105%. It also gave a viability, T/C [10] of 98.8%, a viability, T/C [11] of 111% and a viability, T/C [12] of 88.2%. For the same compound, the viability, T/C [13] was 115%, the viability, T/C [14] was 101% and the viability, T/C [15] was 110%. For the same compound, the viability, T/C [16] was 106%, the viability, T/C [17] was 113% and the viability, T/C [18] was 101%. It also gave a viability, T/C [19] of 104%, a viability, T/C [20] of 105% and a viability, T/C [21] of 90.5%. The viability, T/C [22] was 109%, the viability, T/C [23] was 99.5% and the viability, T/C [24] was 94.6%. It also gave a viability, T/C [25] of 98%, a viability, T/C [26] of 102% and a viability, T/C [27] of 110%. It also gave a viability, T/C [28] of 111%, a viability, T/C [29] of 114% and a viability, T/C [30] of 86.4%. The viability, T/C [31] was 104%, the viability, T/C [32] was 107% and the viability, T/C [33] was 105%. For the same compound, the viability, T/C [34] was 104%, the viability, T/C [35] was 95.7% and the viability, T/C [36] was 82.8%.
